Patent EP2601963B1, “N-ISOVALEROYL-L-GLUTAMYL-L-TRYPTOPHAN AS AN AGENT INHIBITING THE FORMATION OF ULCERS IN THE STOMACH AND THE DUODENUM” (Obshestvo S Ogranichennoj Otvetstvennostju "CytoNIR", priority 2010, dated 2015)

Tests used:
Assay type in all cases: in vivo, male Wistar rats
[1] = test system: Alanine aminotransferase (ALT); test: Indomethacin-induced ulcer model, therapeutic: alanine aminotransferase activity in blood serum; conditions: treatment 5 days after Indomethacin
Method: (§1) Alanine aminotransferase (ALT) and alkaline phosphatase (AP) activity in blood serum was determined with "Vital Development Corporation" kits.
(§2) 2 ml/kg of the ulcerogenic dose of indomethacin equal to 30 mg/kg was administered intraperitoneally. The treatment started 24 hrs. post indomethacin administration and continued for 5 days. The animals in the experimental groups received N-isovaleroyl-L-glutamyl-L-tryptophan or the comparator drug Sucralfate, and the control group received distilled water.

[2] = test system: superoxide dismutase (SODM); test: Indomethacin-induced ulcer model, therapeutic: superoxide dismutase activity in blood serum; conditions: treatment 5 days after Indomethacin
Method: (§3) Intensity of the free radical oxidation was evaluated by the malondialdehyde (MDA) accumulation in blood serum [R.A. Temirbulatov, Ye.I. Seleznev Method for Increasing the Intensity of Free Radical Oxidation in Lipid-Containing Blood Components and its Diagnostic Significance // Labor. Delo, 1981, # 4, p.p. 209 - 211]. The state of the antioxidant systems was evaluated by the superoxide dismutase (SODM) activity [S. Chevari , I. Chaba, Y. Sekei. The Role of Superoxide Dismutase in Cellular Oxidative Processes and Method of its Determination in Biological Materials // Labor. Delo, 1985, # 11, p.p. 678 - 681].
as §2

malondialdehyde (MDA) [3] = test: Indomethacin-induced ulcer model, therapeutic: malondialdehyde in blood serum; conditions: for MDA: treatment 5 days after Indomethacin
Method: as §3, §2

malondialdehyde (MDA) [4] = test: Indomethacin-induced ulcer model, preventive: malondialdehyde in blood serum
Method: as §3
(§4) The efficacy of the course of preventive treatment with the claimed composition was evaluated 24 hrs. post indomethacin administration. The study was conducted as in Example 1.

[5] = test system: alkaline phosphatase (AP); test: Water-immersion stress model: alkaline phosphatase activity in blood serum
Method: as §1

[6] = Indomethacin-induced ulcer model, therapeutic: weight of organs; conditions: treatment 5 days after Indomethacin
Method: (§5) Intensity of changes caused by stressors in the internal organs of the animals was evaluated by the relative weight changes of the adrenal glands, thymus, and spleen calculated as a ratio of the organ's weight to the body weight of the animal multiplied by 100.
as §2

[7] = test system: Alanine aminotransferase (ALT); test: Water-immersion stress model: alanine aminotransferase activity in blood serum
Method: as §1

[8] = Indomethacin intoxication, therapeutic: changes in body weight; conditions: Indomethacin 30 mg/kg, Before Indomethacin = 100
Method: as §2
Some loss of weight of the intact animals could be contributed to the 18-hr fasting. […]

[9] = Water-immersion stress model: weight of organs
Method: as §5

[10] = test system: superoxide dismutase (SODM); test: Indomethacin-induced ulcer model, preventive: superoxide dismutase activity in blood serum
Method: as §3, §4

[11] = test system: superoxide dismutase (SODM); test: Water-immersion stress model: superoxide dismutase activity in blood serum
Method: as §3

[12] = test system: alkaline phosphatase (AP); test: Indomethacin-induced ulcer model, therapeutic: alkaline phosphatase activity in blood serum; conditions: treatment 5 days after Indomethacin
Method: as §1, §2

[13] = test system: alkaline phosphatase (AP); test: Indomethacin-induced ulcer model, preventive: alkaline phosphatase activity in blood serum
Method: as §1, §4

malondialdehyde (MDA) [14] = test: Water-immersion stress model: malondialdehyde in blood serum
Method: as §3

[15] = Indomethacin-induced ulcer model, preventive: weight of organs
Method: as §5, §4

[16] = test system: Alanine aminotransferase (ALT); test: Indomethacin-induced ulcer model, preventive: alanine aminotransferase activity in blood serum
Method: as §1, §4

[17] = blood serum, 0.1 mkg/kg + Indomethacin 20 mg/kg, preventive
[18] = blood serum, 10 mkg/kg + Indomethacin 20 mg/kg, preventive
[19] = preventive administration, indomethacin 20 mg/kg
[20] = 0.1 mkg/kg + Indomethacin 20 mg/kg
[21] = 10 mkg/kg + Indomethacin 20 mg/kg
[22] = 200 mg/kg + Indomethacin 20 mg/kg

Substance: N-isovaleroyl-L-glutamyl-L-tryptophan [VGT preparation]
- ALT ([1]; 0.1 mkg/kg): 0.75 ± 0.09 mM/h*L
- ALT ([1]; 10.0 mkg/kg): 0.66 ± 0.11 mM/h*L
- SODM ([2]; 0.1 mkg/kg): 3.1 ± 0.11 conv. units/ml
- SODM ([2]; 10.0 mkg/kg): 3.06 ± 0.16 conv. units/ml
- MDA (malondialdehyde (MDA) [3]; blood serum, 0.1 mkg/kg): 0.169 ± 0.012 OD532
- MDA (malondialdehyde (MDA) [3]; blood serum, 10.0 mkg/kg): 0.217 ± 0.030 OD532
- reduced MDA content (malondialdehyde (MDA) [3]; small dose, treatment after Indomethacin): 70%
- MDA (malondialdehyde (MDA) [4]; [17]): 0.124 ± 0.009 OD532
- MDA (malondialdehyde (MDA) [4]; [18]): 0.158 ± 0.030 OD532
- reduced the final LP-MDA product concentration compared to control animals (malondialdehyde (MDA) [4]; [19]): 14%
- AP ([5]; 0.1 mkg/kg + stress): 1100 ± 54 nM/s-L
- AP ([5]; 10.0 mkg/kg + stress): 1123 ± 55 nM/s-L
- Adrenal Glands Rel. wt. ([6]; 0.1 mkg/kg): 0.019 ± 0.002%
- Adrenal Glands Wt. ([6]; 0.1 mkg/kg): 41.8 ± 5.1
- Liver Rel. wt. ([6]; 0.1 mkg/kg): 3.27 ±0.18%
- Liver Wt. ([6]; 0.1 mkg/kg): 7.062 ± 0.411 g
- Spleen Rel. wt. ([6]; 0.1 mkg/kg): 0.48 ± 0.03%
- Spleen Wt. ([6]; 0.1 mkg/kg): 1.061 ± 0.085 g
- Thymus Rel. wt. ([6]; 0.1 mkg/kg): 0.081 ± 0.007%
- Thymus Wt. ([6]; 0.1 mkg/kg): 0.173 ± 0.018 g
- Adrenal Glands Rel. wt. ([6]; 10.0 mkg/kg): 0.022 ± 0.002%
- Adrenal Glands Wt. ([6]; 10.0 mkg/kg): 48.3 ± 2.2
- Liver Rel. wt. ([6]; 10.0 mkg/kg): 3.76 ± 0.020 %
- Liver Wt. ([6]; 10.0 mkg/kg): 8.310 ± 0.426 g
- Spleen Rel. wt. ([6]; 10.0 mkg/kg): 0.56 ± 0.05%
- Spleen Wt. ([6]; 10.0 mkg/kg): 1.233 ± 0.104 g
- Thymus Rel. wt. ([6]; 10.0 mkg/kg): 0.078 ± 0.008%
- Thymus Wt. ([6]; 10.0 mkg/kg): 0.179 ± 0.032 g
- ALT ([7]; 0.1 mkg/kg + stress): 1.55 ± 0.15 mM/hr-L
- ALT ([7]; 10.0 mkg/kg + stress): 1.78 ± 0.08 mM/hr-L
- Body weight In 5 days ([8]; 0.1 mkg/kg): 84.4 ± 2.3
- Body weight In 5 days ([8]; 10.0 mkg/kg): 84.1 ± 3.0
- Adrenal Glands Rel Wt. ([9]; 0.1 mkg/kg + stress): 0.017 ± 0.001 %
- Adrenal Glands Wt. ([9]; 0.1 mkg/kg + stress): 40.8 ± 1.1 mg
- Spleen Rel Wt. ([9]; 0.1 mkg/kg + stress): 0.37 ± 0.06 %
- Spleen Wt. ([9]; 0.1 mkg/kg + stress): 0.872 ± 0.066 g
- Thymus Rel Wt. ([9]; 0.1 mkg/kg + stress): 0.124 ± 0.010 %
- Thymus Wt. ([9]; 0.1 mkg/kg + stress): 0.307 ± 0.028 g
- reducing adrenal weight compared to that of the control animals ([9]; 0.1 mkg/kg + stress): 16 - 17%
- Adrenal Glands Rel Wt. ([9]; 10.0 mkg/kg + stress): 0.018 ± 0.001 %
- Adrenal Glands Wt. ([9]; 10.0 mkg/kg + stress): 45.2 ± 2.2 mg
- Spleen Rel Wt. ([9]; 10.0 mkg/kg + stress): 0.41 ± 0.03%
- Spleen Wt. ([9]; 10.0 mkg/kg + stress): 0.977 ± 0.082 g
- Thymus Rel Wt. ([9]; 10.0 mkg/kg + stress): 0.154 ± 0.008%
- Thymus Wt. ([9]; 10.0 mkg/kg + stress): 0.350 ± 0.022 g
- lowered the relative weight of the spleen compared to that of the intact animals ([9]; small doses + stress): 24%
- SODM [10, 17]: 2.50 ± 0.05 con. units/ml
- SODM [10, 18]: 2.58 ± 0.14 con. units/ml
- increased the activity of SODM compared to control animals [10, 19]: 1.6 times
- SODM ([11]; 0.1 mkg/kg + stress): 2.20 ± 0.09 con. units/ml
- SODM ([11]; 10 mkg/kg + stress): 2.35 ± 0.11 con. units/ml
- AP ([12]; 0.1 mkg/kg): 1357 ± 58 nM/c*L
- AP ([12]; 10.0 mkg/kg): 1368 ± 148 nM/c*L
- AP [13, 20]: 1108 ± 91 nM/s-L
- AP [13, 21]: 1180 ± 91 nM/s-L
- MDA (malondialdehyde (MDA) [14]; 0.1 mkg/kg + stress): 0.130 ± 0.019 OD532
- MDA (malondialdehyde (MDA) [14]; 10 mkg/kg + stress): 0.128 ± 0.020 OD532
- Adrenal Glands Rel. wt. [15, 20]: 0.017 ± 0.001%
- Adrenal Glands Wt. [15, 20]: 37.1 ± 1.3 mg
- Liver Rel. wt. [15, 20]: 2.99 ± 0.060%
- Liver Wt. [15, 20]: 6.549 ± 0.282 g
- Spleen Rel. wt. [15, 20]: 0.433 ± 0.041%
- Spleen Wt. [15, 20]: 0.912 ± 0.044 g
- Thymus Rel. wt. [15, 20]: 0.124 ± 0.007 %
- Thymus Wt. [15, 20]: 0.277 ± 0.018 g
- Adrenal Glands Rel. wt. [15, 21]: 0.018 ± 0.001%
- Adrenal Glands Wt. [15, 21]: 38.5 ± 1.4 mg
- Liver Rel. wt. [15, 21]: 3.053 ± 0.065%
- Liver Wt. [15, 21]: 6.770 ± 0.335 g
- Spleen Rel. wt. [15, 21]: 0.434 ± 0.018%
- Spleen Wt. [15, 21]: 0.926 ± 0.060 g
- Thymus Rel. wt. [15, 21]: 0.133 ± 0.009%
- Thymus Wt. [15, 21]: 0.320 ± 0.030 g
- ALT [16, 20]: 1.04 ± 0.06 mM/hr-L
- ALT [16, 21]: 1.08 ± 0.06 mM/hr-L

Substance: aluminum complex of beta-D-fructofuranosyl-alpha-D-glucopyranoside octakis (hydrosulfate) [Sucralfate]
- ALT ([1]; 200 mg/kg): 0.69 ± 0.05 mM/h*L
- SODM ([2]; 200 mg/kg): 2.66 ± 0.11 conv. units/ml
- MDA (malondialdehyde (MDA) [3]; 200 mg/kg): 0.155 ± 0.037 OD532
- MDA (malondialdehyde (MDA) [4]; [22]): 0.134 ± 0.024 OD532
- AP ([5]; 200 mg/kg + stress): 1113 ± 77 nM/s-L
- Adrenal Glands Rel. wt. ([6]; 200 mg/kg): 0.023± 0.002%
- Adrenal Glands Wt. ([6]; 200 mg/kg): 50.1 ± 3.2
- Liver Rel. wt. ([6]; 200 mg/kg): 3.23 ± 0.13%
- Liver Wt. ([6]; 200 mg/kg): 7.158 ± 0.330 g
- Spleen Rel. wt. ([6]; 200 mg/kg): 0.57 ± 0.04%
- Spleen Wt. ([6]; 200 mg/kg): 1.260 ± 0.083 g
- Thymus Rel. wt. ([6]; 200 mg/kg): 0.070 ± 0.005 %
- Thymus Wt. ([6]; 200 mg/kg): 0.155 ± 0.011 g
- ALT ([7]; 200 mg/kg + stress): 1.57 ± 0.06 mM/hr-L
- Body weight In 5 days ([8]; 200 mg/kg): 86.6 ± 2.5
- Adrenal Glands Rel Wt. ([9]; 200 mg/kg + stress): 0.017 ± 0.001 %
- Adrenal Glands Wt. ([9]; 200 mg/kg + stress): 41.6 ± 2.7 mg
- Spleen Rel Wt. ([9]; 200 mg/kg + stress): 0.40 ± 0.02%
- Spleen Wt. ([9]; 200 mg/kg + stress): 0.974 ± 0.057 g
- Thymus Rel Wt. ([9]; 200 mg/kg + stress): 0.140 ± 0.007%
- Thymus Wt. ([9]; 200 mg/kg + stress): 0.327 ± 0.016 g
- SODM [10, 22]: 2.68 ± 0.14 con. units/ml
- SODM ([11]; 200 mg/kg + stress): 2.32 ± 0.11 con. units/ml
- AP ([12]; 200 mg/kg): 1260 ± 104 nM/c*L
- AP [13, 22]: 931 ± 108 nM/s-L
- MDA (malondialdehyde (MDA) [14]; 200 mg/kg + stress): 0.147 ± 0.007 OD532
- Adrenal Glands Rel. wt. [15, 22]: 0.017 ± 0.001%
- Liver Rel. wt. [15, 22]: 3.259± 0.049%
- Liver Wt. [15, 22]: 7.702 ± 0.224 g
- Spleen Rel. wt. [15, 22]: 0.490 ± 0.020%
- Spleen Wt. [15, 22]: 1.070 ± 0.041 g
- Thymus Rel. wt. [15, 22]: 0.130 ± 0.009%
- Thymus Wt. [15, 22]: 0.306 ± 0.023 g
- ALT [16, 22]: 1.05 ± 0.05 mM/hr-L
